PubChem BioAssay (NCI)
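Method: 48-hour compound exposure of cells in 96-well plates, five concentrations, linear interpolation of endpoints. Here, GI50 denotes the concentration required for 50% inhibition of growth. TGI: total growth inhibition.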

What was measured:
Assay in all cases: growth of human tumour cells (NCI), 48 h
NCI/ADR-RES ovarian = system: NCI/ADR-RES ovarian
SF-539 CNS = system: SF-539 CNS
M14 melanoma = system: M14 melanoma
CAKI-1 renal = system: CAKI-1 renal
COLO 205 colon = system: COLO 205 colon
SK-OV-3 ovarian = system: SK-OV-3 ovarian
ACHN renal = system: ACHN renal
HCT-116 colon = system: HCT-116 colon
PC-3 prostate = system: PC-3 prostate
OVCAR-4 ovarian = system: OVCAR-4 ovarian
IGROV1 ovarian = system: IGROV1 ovarian
786-0 renal = system: 786-0 renal
SK-MEL-2 melanoma = system: SK-MEL-2 melanoma
UACC-62 melanoma = system: UACC-62 melanoma
HT29 colon = system: HT29 colon
OVCAR-5 ovarian = system: OVCAR-5 ovarian
NCI-H226 lung = system: NCI-H226 lung
NCI-H23 lung = system: NCI-H23 lung
A549 NSCLC = system: A549 NSCLC
SK-MEL-28 melanoma = system: SK-MEL-28 melanoma
SK-MEL-5 melanoma = system: SK-MEL-5 melanoma
EKVX NSCLC = system: EKVX NSCLC
MOLT-4 leukemia = system: MOLT-4 leukemia
SNB-75 CNS = system: SNB-75 CNS
U251 CNS = system: U251 CNS
UO-31 renal = system: UO-31 renal
HS 578T breast = system: HS 578T breast
OVCAR-3 ovarian = system: OVCAR-3 ovarian
MDA-MB-231 breast = system: MDA-MB-231 breast
TK-10 renal = system: TK-10 renal
HOP-92 NSCLC = system: HOP-92 NSCLC
UACC-257 melanoma = system: UACC-257 melanoma
NCI-H460 lung = system: NCI-H460 lung
MCF7 breast = system: MCF7 breast
DU-145 prostate = system: DU-145 prostate
MALME-3M melanoma = system: MALME-3M melanoma
KM12 colon = system: KM12 colon
OVCAR-8 ovarian = system: OVCAR-8 ovarian
SF-295 CNS = system: SF-295 CNS
NCI-H522 lung = system: NCI-H522 lung
SF-268 CNS = system: SF-268 CNS
MDA-MB-435 = system: MDA-MB-435
T-47D breast = system: T-47D breast
K-562 leukemia = system: K-562 leukemia
RXF 393 renal = system: RXF 393 renal
SN12C renal = system: SN12C renal
RPMI-8226 leukemia = system: RPMI-8226 leukemia
HOP-62 NSCLC = system: HOP-62 NSCLC
SW-620 colon = system: SW-620 colon
HCT-15 colon = system: HCT-15 colon
SNB-19 CNS = system: SNB-19 CNS
BT-549 breast = system: BT-549 breast

Structure (SMILES): CNC1=CC(=O)C2=C(C1=O)C1C3=C(C(=O)C(Br)=C(OC)C3=O)C2c2ccccc21 (centres undefined)
- GI50 (NCI/ADR-RES ovarian): 1.55 µM
- TGI (NCI/ADR-RES ovarian): 8.18 µM
- GI50 (SF-539 CNS): 1.23 µM
- TGI (SF-539 CNS): 2.75 µM
- GI50 (M14 melanoma): 6.76 µM
- TGI (M14 melanoma): 17.1 µM
- GI50 (CAKI-1 renal): 1.89 µM
- TGI (CAKI-1 renal): 4.83 µM
- GI50 (COLO 205 colon): 9.89 µM
- TGI (COLO 205 colon): 22 µM
- GI50 (SK-OV-3 ovarian): 2.15 µM
- TGI (SK-OV-3 ovarian): > 50 µM
- GI50 (ACHN renal): 1.74 µM
- TGI (ACHN renal): 6.21 µM
- GI50 (HCT-116 colon): 1.87 µM
- TGI (HCT-116 colon): 5.7 µM
- GI50 (PC-3 prostate): 1.08 µM
- TGI (PC-3 prostate): 2.75 µM
- GI50 (OVCAR-4 ovarian): 2.3 µM
- TGI (OVCAR-4 ovarian): 15.6 µM
- GI50 (IGROV1 ovarian): 1.35 µM
- TGI (IGROV1 ovarian): 3.2 µM
- GI50 (786-0 renal): 1.38 µM
- TGI (786-0 renal): 3.5 µM
- GI50 (SK-MEL-2 melanoma): 3.03 µM
- TGI (SK-MEL-2 melanoma): 14.1 µM
- GI50 (UACC-62 melanoma): 1.47 µM
- TGI (UACC-62 melanoma): 3.89 µM
- GI50 (HT29 colon): 2.71 µM
- TGI (HT29 colon): > 50 µM
- GI50 (OVCAR-5 ovarian): 2.15 µM
- TGI (OVCAR-5 ovarian): 8.63 µM
- GI50 (NCI-H226 lung): 6.66 µM
- TGI (NCI-H226 lung): 14.7 µM
- GI50 (NCI-H23 lung): 4.44 µM
- TGI (NCI-H23 lung): 16 µM
- GI50 (A549 NSCLC): 20.6 µM
- TGI (A549 NSCLC): > 50 µM
- GI50 (SK-MEL-28 melanoma): 2.34 µM
- TGI (SK-MEL-28 melanoma): > 50 µM
- GI50 (SK-MEL-5 melanoma): 5.46 µM
- TGI (SK-MEL-5 melanoma): 16.9 µM
- GI50 (EKVX NSCLC): 1.53 µM
- TGI (EKVX NSCLC): 3.31 µM
- GI50 (MOLT-4 leukemia): 1.12 µM
- TGI (MOLT-4 leukemia): > 50 µM
- GI50 (SNB-75 CNS): 5.69 µM
- TGI (SNB-75 CNS): 18.2 µM
- GI50 (U251 CNS): 1.41 µM
- TGI (U251 CNS): 4.26 µM
- GI50 (UO-31 renal): 1.98 µM
- TGI (UO-31 renal): 5.87 µM
- GI50 (HS 578T breast): 2.72 µM
- TGI (HS 578T breast): 22.1 µM
- GI50 (OVCAR-3 ovarian): 1.5 µM
- TGI (OVCAR-3 ovarian): 3.1 µM
- GI50 (MDA-MB-231 breast): 1.41 µM
- TGI (MDA-MB-231 breast): 3.17 µM
- GI50 (TK-10 renal): 7.56 µM
- TGI (TK-10 renal): 26.2 µM
- GI50 (HOP-92 NSCLC): 1.24 µM
- TGI (HOP-92 NSCLC): 2.97 µM
- GI50 (UACC-257 melanoma): 4.58 µM
- TGI (UACC-257 melanoma): > 50 µM
- GI50 (NCI-H460 lung): 11.1 µM
- TGI (NCI-H460 lung): > 50 µM
- GI50 (MCF7 breast): 2.65 µM
- TGI (MCF7 breast): 26.2 µM
- GI50 (DU-145 prostate): 5.9 µM
- TGI (DU-145 prostate): 20.8 µM
- GI50 (MALME-3M melanoma): 6.84 µM
- TGI (MALME-3M melanoma): 17.9 µM
- GI50 (KM12 colon): 1.87 µM
- TGI (KM12 colon): 5.93 µM
- GI50 (OVCAR-8 ovarian): 3.87 µM
- TGI (OVCAR-8 ovarian): > 50 µM
- GI50 (SF-295 CNS): 2.85 µM
- TGI (SF-295 CNS): 10 µM
- GI50 (NCI-H522 lung): 1.3 µM
- TGI (NCI-H522 lung): 2.98 µM
- GI50 (SF-268 CNS): 1.87 µM
- TGI (SF-268 CNS): 10.3 µM
- GI50 (MDA-MB-435): 6.92 µM
- TGI (MDA-MB-435): 17.1 µM
- GI50 (T-47D breast): 1.44 µM
- TGI (T-47D breast): 15.7 µM
- GI50 (K-562 leukemia): 1.35 µM
- TGI (K-562 leukemia): 3.01 µM
- GI50 (RXF 393 renal): 1.49 µM
- TGI (RXF 393 renal): 2.99 µM
- GI50 (SN12C renal): 1.05 µM
- TGI (SN12C renal): 2.07 µM
- GI50 (RPMI-8226 leukemia): 2.27 µM
- TGI (RPMI-8226 leukemia): > 50 µM
- GI50 (HOP-62 NSCLC): 1.55 µM
- TGI (HOP-62 NSCLC): 4.61 µM
- GI50 (SW-620 colon): 2.88 µM
- TGI (SW-620 colon): > 50 µM
- GI50 (HCT-15 colon): 2.06 µM
- TGI (HCT-15 colon): 10.5 µM
- GI50 (SNB-19 CNS): 2.82 µM
- TGI (SNB-19 CNS): 11.6 µM
- GI50 (BT-549 breast): 1.6 µM
- TGI (BT-549 breast): 5.3 µM
